# Results from PubChem BioAssay (NCI).
#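 Abbreviation: GI50, concentration required for 50% inhibition of growth. TGI is the concentration that stops growth completely.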
# Tests used:
# Assay in all cases: growth of human tumour cells (NCI), 384-well format
# OVCAR-3 ovarian = system: OVCAR-3 ovarian
# A549 NSCLC = system: A549 NSCLC
# PC-3 prostate = system: PC-3 prostate
# HT29 colon = system: HT29 colon
# 786-0 renal = system: 786-0 renal
# SF-295 CNS = system: SF-295 CNS
# MDA-MB-231 breast = system: MDA-MB-231 breast
# TK-10 renal = system: TK-10 renal
# BT-549 breast = system: BT-549 breast
# HS 578T breast = system: HS 578T breast
# OVCAR-8 ovarian = system: OVCAR-8 ovarian
# SK-MEL-28 melanoma = system: SK-MEL-28 melanoma
# IGROV1 ovarian = system: IGROV1 ovarian
# RXF 393 renal = system: RXF 393 renal
# CAKI-1 renal = system: CAKI-1 renal
# MALME-3M melanoma = system: MALME-3M melanoma
# COLO 205 colon = system: COLO 205 colon
# HOP-92 NSCLC = system: HOP-92 NSCLC
# MDA-MB-468 breast = system: MDA-MB-468 breast
# UACC-257 melanoma = system: UACC-257 melanoma
# K-562 leukemia = system: K-562 leukemia
# MCF7 breast = system: MCF7 breast
# DU-145 prostate = system: DU-145 prostate
# HCT-15 colon = system: HCT-15 colon
# MDA-MB-435 melanoma = system: MDA-MB-435 melanoma
# ACHN renal = system: ACHN renal
# NCI-H460 NSCLC = system: NCI-H460 NSCLC
# KM12 colon = system: KM12 colon
# LOX IMVI melanoma = system: LOX IMVI melanoma
# SNB-19 CNS = system: SNB-19 CNS
# NCI-H226 lung = system: NCI-H226 lung
# HL-60(TB) leukemia = system: HL-60(TB) leukemia
# HCC-2998 colon = system: HCC-2998 colon
# M14 melanoma = system: M14 melanoma
# EKVX NSCLC = system: EKVX NSCLC
# SNB-75 CNS = system: SNB-75 CNS
# MOLT-4 leukemia = system: MOLT-4 leukemia
# UO-31 renal = system: UO-31 renal
# A498 renal = system: A498 renal
# SN12C renal = system: SN12C renal
# SF-539 CNS = system: SF-539 CNS
# NCI-H322M lung = system: NCI-H322M lung
# OVCAR-4 ovarian = system: OVCAR-4 ovarian
# HCT-116 colon = system: HCT-116 colon
# OVCAR-5 ovarian = system: OVCAR-5 ovarian
# SK-MEL-5 melanoma = system: SK-MEL-5 melanoma
# HOP-62 NSCLC = system: HOP-62 NSCLC
# CCRF-CEM leukemia = system: CCRF-CEM leukemia
# SF-268 CNS = system: SF-268 CNS
# NCI-H23 lung = system: NCI-H23 lung
# NCI/ADR-RES ovarian = system: NCI/ADR-RES ovarian
# SK-OV-3 ovarian = system: SK-OV-3 ovarian
smiles,measurement,setting,value
Cn1cc(C2=C(c3cn(C4CCN(Cc5ccccn5)CC4)c4ccccc34)C(=O)NC2=O)c2ccccc21,GI50,OVCAR-3 ovarian,500 nM
same,TGI,OVCAR-3 ovarian,3.36 µM
same,GI50,A549 NSCLC,5.18 µM
same,TGI,A549 NSCLC,> 100 µM
same,GI50,PC-3 prostate,2980 nM
same,TGI,PC-3 prostate,> 100 µM
same,GI50,HT29 colon,3.29 µM
same,TGI,HT29 colon,> 100 µM
same,GI50,786-0 renal,3.31 µM
same,TGI,786-0 renal,> 100 µM
same,GI50,SF-295 CNS,4.48 µM
same,TGI,SF-295 CNS,> 100 µM
same,GI50,MDA-MB-231 breast,4.21 µM
same,TGI,MDA-MB-231 breast,> 100 µM
same,GI50,TK-10 renal,2700 nM
same,TGI,TK-10 renal,> 100 µM
same,GI50,BT-549 breast,1600 nM
same,TGI,BT-549 breast,> 100 µM
same,GI50,HS 578T breast,2220 nM
same,TGI,HS 578T breast,5.08 µM
same,GI50,OVCAR-8 ovarian,6.7 µM
same,TGI,OVCAR-8 ovarian,> 100 µM
same,GI50,SK-MEL-28 melanoma,2890 nM
same,TGI,SK-MEL-28 melanoma,> 100 µM
same,GI50,IGROV1 ovarian,3.57 µM
same,TGI,IGROV1 ovarian,> 100 µM
same,GI50,RXF 393 renal,2060 nM
same,TGI,RXF 393 renal,4.85 µM
same,GI50,CAKI-1 renal,3.99 µM
same,TGI,CAKI-1 renal,> 100 µM
same,GI50,MALME-3M melanoma,2840 nM
same,TGI,MALME-3M melanoma,7.71 µM
same,GI50,COLO 205 colon,4.14 µM
same,TGI,COLO 205 colon,> 100 µM
same,GI50,HOP-92 NSCLC,4.24 µM
same,TGI,HOP-92 NSCLC,> 100 µM
same,GI50,MDA-MB-468 breast,274 nM
same,TGI,MDA-MB-468 breast,593 nM
same,GI50,UACC-257 melanoma,> 100 µM
same,TGI,UACC-257 melanoma,> 100 µM
same,GI50,K-562 leukemia,454 nM
same,TGI,K-562 leukemia,1580 nM
same,GI50,MCF7 breast,2980 nM
same,TGI,MCF7 breast,> 100 µM
same,GI50,DU-145 prostate,2650 nM
same,TGI,DU-145 prostate,> 100 µM
same,GI50,HCT-15 colon,623 nM
same,TGI,HCT-15 colon,> 100 µM
same,GI50,MDA-MB-435 melanoma,421 nM
same,TGI,MDA-MB-435 melanoma,39.4 µM
same,GI50,ACHN renal,8.73 µM
same,TGI,ACHN renal,> 100 µM
same,GI50,NCI-H460 NSCLC,344 nM
same,TGI,NCI-H460 NSCLC,84 µM
same,GI50,KM12 colon,3.93 µM
same,TGI,KM12 colon,> 100 µM
same,GI50,LOX IMVI melanoma,3.1 µM
same,TGI,LOX IMVI melanoma,> 100 µM
same,GI50,SNB-19 CNS,2610 nM
same,TGI,SNB-19 CNS,> 100 µM
same,GI50,NCI-H226 lung,3.31 µM
same,TGI,NCI-H226 lung,> 100 µM
same,GI50,HL-60(TB) leukemia,713 nM
same,TGI,HL-60(TB) leukemia,2540 nM
same,GI50,HCC-2998 colon,1500 nM
same,TGI,HCC-2998 colon,12.4 µM
same,GI50,M14 melanoma,2940 nM
same,TGI,M14 melanoma,9.21 µM
same,GI50,EKVX NSCLC,917 nM
same,TGI,EKVX NSCLC,> 100 µM
same,GI50,SNB-75 CNS,1410 nM
same,TGI,SNB-75 CNS,7.12 µM
same,GI50,MOLT-4 leukemia,1900 nM
same,TGI,MOLT-4 leukemia,3.35 µM
same,GI50,UO-31 renal,1110 nM
same,TGI,UO-31 renal,> 100 µM
same,GI50,A498 renal,718 nM
same,TGI,A498 renal,7.71 µM
same,GI50,SN12C renal,1260 nM
same,TGI,SN12C renal,> 100 µM
same,GI50,SF-539 CNS,1200 nM
same,TGI,SF-539 CNS,> 100 µM
same,GI50,NCI-H322M lung,5.75 µM
same,TGI,NCI-H322M lung,> 100 µM
same,GI50,OVCAR-4 ovarian,3.33 µM
same,TGI,OVCAR-4 ovarian,> 100 µM
same,GI50,HCT-116 colon,645 nM
same,TGI,HCT-116 colon,> 100 µM
same,GI50,OVCAR-5 ovarian,> 100 µM
same,TGI,OVCAR-5 ovarian,> 100 µM
same,GI50,SK-MEL-5 melanoma,372 nM
same,TGI,SK-MEL-5 melanoma,95.5 µM
same,GI50,HOP-62 NSCLC,3.22 µM
same,TGI,HOP-62 NSCLC,> 100 µM
same,GI50,CCRF-CEM leukemia,403 nM
same,TGI,CCRF-CEM leukemia,1240 nM
same,GI50,SF-268 CNS,3000 nM
same,TGI,SF-268 CNS,7.84 µM
same,GI50,NCI-H23 lung,5.28 µM
same,TGI,NCI-H23 lung,> 100 µM
same,GI50,NCI/ADR-RES ovarian,3.33 µM
same,TGI,NCI/ADR-RES ovarian,> 100 µM
same,GI50,SK-OV-3 ovarian,2520 nM
same,TGI,SK-OV-3 ovarian,> 100 µM
